# According to ChEMBL document CHEMBL1201862, “PubChem BioAssay data set” (2004):
# Calls of active or inactive are those of the source.
# Legend:
# Ion channel NompC = Ion channel NompC (Danio rerio, UniProt Q7T1G6); experiment: Dose response cell-based high-throughput screening assay for agonists of the transient receptor potential channel N1 (TRPN1). [Related pubchem assays (depositor defined):AID1424, AID1448]; format: functional
# NADPH oxidase 1 = molecular target: T1, NADPH oxidase 1 (Homo sapiens, UniProt Q9Y5S8); experiment: Luminescence-based cell-based dose response assay to identify inhibitors of NADPH oxidase 1 (NOX1).; format: functional
# T1 sequence (Q9Y5S8 whole entry): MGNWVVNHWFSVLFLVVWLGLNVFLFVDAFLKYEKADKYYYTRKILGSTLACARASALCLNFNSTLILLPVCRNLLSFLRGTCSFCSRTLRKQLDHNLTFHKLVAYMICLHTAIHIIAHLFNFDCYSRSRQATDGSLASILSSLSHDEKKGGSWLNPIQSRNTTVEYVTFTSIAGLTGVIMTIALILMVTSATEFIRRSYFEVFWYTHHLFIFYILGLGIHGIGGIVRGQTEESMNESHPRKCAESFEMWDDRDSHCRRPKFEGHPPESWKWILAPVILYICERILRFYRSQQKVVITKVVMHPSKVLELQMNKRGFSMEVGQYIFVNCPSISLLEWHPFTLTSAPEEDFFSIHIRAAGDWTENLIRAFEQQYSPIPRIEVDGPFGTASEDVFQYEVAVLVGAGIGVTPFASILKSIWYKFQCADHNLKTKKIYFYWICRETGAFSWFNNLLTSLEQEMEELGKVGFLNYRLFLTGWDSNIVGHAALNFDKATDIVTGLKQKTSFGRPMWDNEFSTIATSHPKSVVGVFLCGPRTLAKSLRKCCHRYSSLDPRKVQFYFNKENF
# Mucolipin-3 = molecular target: T2, Mucolipin-3 (Homo sapiens, UniProt Q8TDD5); experiment: Fluorescence counterscreen assay for […] agonists: dose response cell-based high-throughput screening assay to identify agonists of the transient receptor potential channel ML3 (TRPML3). [Related pubchem assays: 1424, 1448 ]; format: functional
# T2 sequence (Q8TDD5 whole entry): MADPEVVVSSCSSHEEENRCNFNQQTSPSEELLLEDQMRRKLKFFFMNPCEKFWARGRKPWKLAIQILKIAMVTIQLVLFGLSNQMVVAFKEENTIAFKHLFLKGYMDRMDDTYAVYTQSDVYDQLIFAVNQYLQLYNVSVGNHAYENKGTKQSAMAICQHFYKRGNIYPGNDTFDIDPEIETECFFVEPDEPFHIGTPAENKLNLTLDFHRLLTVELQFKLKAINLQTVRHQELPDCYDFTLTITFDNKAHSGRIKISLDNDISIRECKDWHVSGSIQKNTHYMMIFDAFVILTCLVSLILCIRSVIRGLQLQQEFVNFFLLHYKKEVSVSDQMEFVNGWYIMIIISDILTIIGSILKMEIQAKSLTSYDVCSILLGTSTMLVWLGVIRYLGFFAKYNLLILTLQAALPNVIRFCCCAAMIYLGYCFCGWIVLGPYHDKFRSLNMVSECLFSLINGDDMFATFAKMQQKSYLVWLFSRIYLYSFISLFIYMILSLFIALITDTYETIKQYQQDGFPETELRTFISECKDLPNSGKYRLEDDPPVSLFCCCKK
# [1] = molecular target: Induced myeloid leukemia cell differentiation protein Mcl-1 (Homo sapiens, UniProt Q07820); format: functional
# Nonstructural protein 1 = Nonstructural protein 1 (Influenza A virus, UniProt Q194T2); format: functional, Influenza A virus (A/California/07/2009(H1N1))
# [2] = molecular target: FAD-linked sulfhydryl oxidase ALR (Homo sapiens, UniProt P55789); experiment: inhibitors of human ALR sulfhydryl oxidase, dose response, biochemical, H2O2 detection, luminescence, cherry-pick (AID 493248)
# [3] = molecular target: Luciferin 4-monooxygenase (Photinus pyralis, UniProt P08659); experiment: firefly luciferase enzyme inhibitors, dose response, biochemical, luminescence (AID 1891)
# [4] = Luminescence Cell-Based Dose Confirmation HTS to Identify Inhibitors of Platelet Dense Granule Release. [Related pubchem assays: 1663 (Primary HTS), 1678 (Summary of Project)]; format: functional
# [5] = enhancers of respiration in Yfh1-depleted yeast, dose response, Friedreich's ataxia, plus single-dose screen (AID 1465); format: functional;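 also: yeast depleted of Yfh1p frataxin homolog grown on glycerol needing respiration; WST-1 tetrazolium dye reduction as measure of cellular dehydrogenase metabolic activity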
# CHO-K1 = experiment: Counterscreen for antagonists of the orexin 1 receptor (OX1R; HCRTR1): Homogeneous time resolved fluorescence (HTRF)-based cell-based dose response assay to identify antagonists of the parental CHO-K1 cell line. [Related pubchem assays (depositor defined):AID434989, AID435008, AID463079, AID485270, AID492963, AID492964, AID492965, AID493232, AID504699, AID504701]; format: functional; conditions: Cricetulus griseus;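 also: potency for inhibition of ATP-stimulated IP1 production as antagonists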
# [6] = Counterscreen for antagonists of the orexin 1 receptor (OX1R; HCRTR1): Fluorescence-based cell-based high throughput dose response assay to identify antagonists of the parental CHO cell line. [Related pubchem assays (depositor defined):AID434989, AID435008, AID463079, AID485270, AID492963, AID492964, AID492965, AID493232, AID504699, AID504701]; format: functional
# [7] = molecular target: T3, Orexin/Hypocretin receptor type 1 (Homo sapiens, UniProt O43613); experiment: Homogeneous Time Resolved Fluorescence (HTRF)-based cell-based high throughput dose response assay for antagonists of the orexin 1 receptor (OX1R; HCRTR1). [Related pubchem assays (depositor defined):AID434989, AID435008, AID463079, AID485270, AID492963, AID492964, AID492965, AID493232, AID504717, AID504718]; format: functional
# [8] = molecular target: T3, Orexin/Hypocretin receptor type 1; experiment: Fluorescence-based cell-based high throughput dose response assay for antagonists of the orexin 1 receptor (OX1R; HCRTR1). [Related pubchem assays (depositor defined):AID434989, AID435008, AID463079, AID485270, AID492963, AID492964, AID492965, AID493232, AID504717, AID504718]; format: functional
# [9] = Luminescent dose response cell-based high throughput screening assay for inhibitors of the Janus kinase 2 mutant JAK2V617F. [Related pubchem assays: 1446 (Primary screen.), 1521 (Confirmation assay.), 1486 (Counter screen.)]; format: functional
# [10] = cytotoxicity in HPDE-C7 cells, cell-based, fluorescence, HTS (AID 430); format: functional; conditions: Homo sapiens
# [11] = inhibitors of intracellular T. cruzi replication, confirmation, NIH3T3 host cells, beta-gal luminescence (AID 2044); format: functional, cell-based;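 also: intracellular parasites grown in NIH/3T3 mouse fibroblasts as host cells; luminescent beta-galactosidase reporter signal from transgenic T. cruzi replicating inside host cells; inhibitors lower the luminescence signal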
# [12] = cytotoxicity in KRAS-transformed pancreatic duct cells, primary screen, cell-based, fluorescence, HTS (AID 431); format: functional; conditions: Homo sapiens;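 also: cell line used: HPDE-C7K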
# [13] = cytotoxicity toward NIH3T3 fibroblasts, dose response, counter-screen, cell-based, ATP luminescence, mouse fibroblasts (AID 2010); format: functional;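 also: cells exposed to compound for about 90 hours before reading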
# [14] = molecular target: DNA damage-inducible transcript 3 protein (Mus musculus, UniProt P35639); format: functional, Cricetulus griseus
# [15] = molecular target: T4, Replicative DNA helicase DnaB (Mycobacterium tuberculosis, UniProt P9WMR3); experiment: DnaB intein splicing inhibitors, dose response, biochemical, cell-free fluorescence (AID 449749); format: functional
# T4 sequence (P9WMR3 whole entry): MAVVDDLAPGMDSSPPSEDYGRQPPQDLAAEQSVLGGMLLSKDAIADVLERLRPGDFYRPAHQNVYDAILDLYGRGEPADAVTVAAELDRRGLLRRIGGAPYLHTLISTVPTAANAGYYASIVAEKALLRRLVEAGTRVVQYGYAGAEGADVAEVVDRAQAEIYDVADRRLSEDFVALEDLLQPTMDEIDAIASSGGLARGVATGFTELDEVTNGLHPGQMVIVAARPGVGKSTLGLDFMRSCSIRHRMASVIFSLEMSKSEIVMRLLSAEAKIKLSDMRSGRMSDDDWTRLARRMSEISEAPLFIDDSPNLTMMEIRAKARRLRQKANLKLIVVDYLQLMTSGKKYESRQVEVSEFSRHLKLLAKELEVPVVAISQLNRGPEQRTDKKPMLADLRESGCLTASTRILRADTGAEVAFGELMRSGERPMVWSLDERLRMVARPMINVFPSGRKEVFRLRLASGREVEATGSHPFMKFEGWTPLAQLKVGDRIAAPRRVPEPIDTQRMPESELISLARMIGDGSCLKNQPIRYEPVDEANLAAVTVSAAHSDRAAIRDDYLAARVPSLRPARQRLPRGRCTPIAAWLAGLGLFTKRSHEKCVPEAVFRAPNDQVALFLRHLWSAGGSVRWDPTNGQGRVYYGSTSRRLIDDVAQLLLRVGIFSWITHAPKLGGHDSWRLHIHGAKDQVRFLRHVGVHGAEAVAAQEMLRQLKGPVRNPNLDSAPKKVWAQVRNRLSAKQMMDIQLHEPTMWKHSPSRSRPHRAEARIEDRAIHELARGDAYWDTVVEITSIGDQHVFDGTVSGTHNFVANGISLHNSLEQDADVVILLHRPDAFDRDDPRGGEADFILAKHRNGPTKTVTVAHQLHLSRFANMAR
# Protein RecA = molecular target: T5, Protein RecA (Mycobacterium tuberculosis, UniProt P9WHJ3); experiment: Fluorescence Cell-Free Homogeneous Dose Retest to Identify Inhibitors of RecA-Intein Splicing Activity. [Related pubchem assays (depositor defined):AID2097, AID2223, AID489010, AID492950]; format: functional
# T5 sequence (P9WHJ3 whole entry): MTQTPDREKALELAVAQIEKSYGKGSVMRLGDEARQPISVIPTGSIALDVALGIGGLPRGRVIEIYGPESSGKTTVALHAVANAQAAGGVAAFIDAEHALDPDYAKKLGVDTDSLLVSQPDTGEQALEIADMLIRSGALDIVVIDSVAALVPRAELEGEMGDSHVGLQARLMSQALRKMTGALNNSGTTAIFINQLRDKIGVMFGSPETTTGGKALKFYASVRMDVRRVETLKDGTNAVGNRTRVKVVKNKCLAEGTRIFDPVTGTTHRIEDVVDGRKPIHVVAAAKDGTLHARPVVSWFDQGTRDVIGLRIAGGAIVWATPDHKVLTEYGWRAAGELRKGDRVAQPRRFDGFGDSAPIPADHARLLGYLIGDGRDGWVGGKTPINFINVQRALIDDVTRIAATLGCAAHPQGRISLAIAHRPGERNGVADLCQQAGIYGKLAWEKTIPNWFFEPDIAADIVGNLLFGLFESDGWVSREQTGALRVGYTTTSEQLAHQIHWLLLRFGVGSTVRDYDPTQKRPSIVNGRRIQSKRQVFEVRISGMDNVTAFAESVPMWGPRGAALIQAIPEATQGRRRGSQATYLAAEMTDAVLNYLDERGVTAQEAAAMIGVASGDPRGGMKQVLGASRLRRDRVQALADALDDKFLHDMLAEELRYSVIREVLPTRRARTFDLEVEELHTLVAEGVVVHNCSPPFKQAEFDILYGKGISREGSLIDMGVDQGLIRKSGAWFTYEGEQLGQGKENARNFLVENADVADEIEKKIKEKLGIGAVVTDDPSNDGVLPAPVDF
# [16] = molecular target: Intestinal-type alkaline phosphatase (Homo sapiens, UniProt P09923); experiment: human intestinal alkaline phosphatase activators, dose response, biochemical, luminescence, uHTS hits (AID 463120); format: functional
# [17] = molecular target: T6, E3 ubiquitin-protein ligase XIAP (Homo sapiens, UniProt P98170); experiment: SAR analysis of Antagonists of XIAP-Bir3 domain of IAP-family anti-apoptotic proteins. [Related pubchem assays (depositor defined):AID1018, AID1449, AID1513, AID1514, AID1638]
# [18] = molecular target: T6, E3 ubiquitin-protein ligase XIAP; experiment: SAR analysis of Antagonists of IAP-family anti-apoptotic proteins. [Related pubchem assays (depositor defined):AID1018, AID1449, AID1513, AID1514, AID1638]
# [19] = molecular target: Signal transducer and activator of transcription 3 (Homo sapiens, UniProt P40763); experiment: STAT3 inhibitors, late-stage profile, late-stage follow-up, cell-based, STAT1 panel, qPCR, cytotoxicity, panel member STAT3 Inhibition (AID 2078)
# [20] = molecular target: Signal transducer and activator of transcription 1-alpha/beta (Homo sapiens, UniProt P42224); experiment: STAT3 inhibitors, late-stage profile, late-stage follow-up, cell-based, STAT1 panel, qPCR, cytotoxicity, panel member STAT1 Inhibition (AID 2078)
# [21] = molecular target: Sphingosine 1-phosphate receptor 4 (Homo sapiens, UniProt O95977); experiment: Late-stage fluorescence dose response cell-based assay to identify agonists of the Sphingosine 1-Phosphate Receptor 4 (S1P4): purchased compounds EC50. [Related pubchem assays (depositor defined):AID1509, AID1523, AID1563, AID1686, AID1701, AID1801]; format: functional
# Chain of Sphingosine 1-phosphate receptor 4 (O95977 whole entry): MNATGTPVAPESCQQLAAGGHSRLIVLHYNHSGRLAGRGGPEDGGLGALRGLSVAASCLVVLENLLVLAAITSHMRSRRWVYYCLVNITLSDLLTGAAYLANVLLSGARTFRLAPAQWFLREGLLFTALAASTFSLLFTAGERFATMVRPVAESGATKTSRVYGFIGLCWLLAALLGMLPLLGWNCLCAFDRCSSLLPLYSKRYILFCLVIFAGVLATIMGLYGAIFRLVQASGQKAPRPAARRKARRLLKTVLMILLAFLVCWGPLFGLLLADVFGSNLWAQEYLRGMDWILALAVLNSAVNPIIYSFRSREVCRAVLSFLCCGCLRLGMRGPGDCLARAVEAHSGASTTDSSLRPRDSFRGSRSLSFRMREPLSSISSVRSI
# T6 sequence (P98170 whole entry, the tested form may be a part): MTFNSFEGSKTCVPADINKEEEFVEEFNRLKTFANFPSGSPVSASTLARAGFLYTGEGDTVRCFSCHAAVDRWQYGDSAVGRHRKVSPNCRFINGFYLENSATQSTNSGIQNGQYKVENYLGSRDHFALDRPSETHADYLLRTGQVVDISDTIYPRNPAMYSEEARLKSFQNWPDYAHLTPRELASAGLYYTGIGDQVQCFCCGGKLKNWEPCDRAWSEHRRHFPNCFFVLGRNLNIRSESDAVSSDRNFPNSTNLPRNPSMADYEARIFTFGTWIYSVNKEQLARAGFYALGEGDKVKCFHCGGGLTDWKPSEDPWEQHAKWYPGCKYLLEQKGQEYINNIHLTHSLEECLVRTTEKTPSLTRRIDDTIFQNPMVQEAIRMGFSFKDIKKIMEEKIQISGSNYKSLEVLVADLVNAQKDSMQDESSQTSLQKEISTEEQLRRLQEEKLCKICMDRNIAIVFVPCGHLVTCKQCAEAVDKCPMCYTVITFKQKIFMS
# T3 sequence (O43613 whole entry): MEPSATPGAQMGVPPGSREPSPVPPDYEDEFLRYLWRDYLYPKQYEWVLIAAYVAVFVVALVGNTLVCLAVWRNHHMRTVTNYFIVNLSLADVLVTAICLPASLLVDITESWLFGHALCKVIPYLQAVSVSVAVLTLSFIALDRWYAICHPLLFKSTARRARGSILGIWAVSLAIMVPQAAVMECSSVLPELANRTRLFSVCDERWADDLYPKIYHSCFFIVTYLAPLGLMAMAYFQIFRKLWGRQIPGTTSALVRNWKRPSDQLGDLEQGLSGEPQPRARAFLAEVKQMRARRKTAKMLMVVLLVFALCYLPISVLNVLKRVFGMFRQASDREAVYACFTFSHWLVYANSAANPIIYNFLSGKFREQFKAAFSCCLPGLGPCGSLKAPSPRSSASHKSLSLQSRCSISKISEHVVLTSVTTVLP
# Chain of FAD-linked sulfhydryl oxidase ALR (P55789 whole entry): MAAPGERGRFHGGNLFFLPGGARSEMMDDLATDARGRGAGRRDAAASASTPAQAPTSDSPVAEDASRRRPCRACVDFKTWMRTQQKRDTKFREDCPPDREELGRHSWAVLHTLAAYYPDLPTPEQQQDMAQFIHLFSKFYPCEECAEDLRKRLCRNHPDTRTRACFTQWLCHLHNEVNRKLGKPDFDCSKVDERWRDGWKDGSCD
# Chain of Intestinal-type alkaline phosphatase (P09923 whole entry, the tested form may be a part): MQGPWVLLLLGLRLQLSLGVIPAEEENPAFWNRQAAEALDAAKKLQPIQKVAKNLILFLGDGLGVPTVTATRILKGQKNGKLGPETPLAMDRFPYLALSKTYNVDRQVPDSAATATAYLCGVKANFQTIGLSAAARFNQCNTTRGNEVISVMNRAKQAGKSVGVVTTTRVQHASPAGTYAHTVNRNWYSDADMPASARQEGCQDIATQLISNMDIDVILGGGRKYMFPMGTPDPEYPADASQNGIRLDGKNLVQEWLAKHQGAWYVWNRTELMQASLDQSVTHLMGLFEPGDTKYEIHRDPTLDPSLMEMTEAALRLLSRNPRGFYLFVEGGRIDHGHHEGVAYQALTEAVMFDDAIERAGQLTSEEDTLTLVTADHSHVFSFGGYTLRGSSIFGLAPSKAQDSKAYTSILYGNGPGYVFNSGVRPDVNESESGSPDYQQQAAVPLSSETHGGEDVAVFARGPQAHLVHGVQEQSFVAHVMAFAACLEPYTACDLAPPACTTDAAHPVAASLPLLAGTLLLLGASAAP
# Chain of Luciferin 4-monooxygenase (P08659 whole entry): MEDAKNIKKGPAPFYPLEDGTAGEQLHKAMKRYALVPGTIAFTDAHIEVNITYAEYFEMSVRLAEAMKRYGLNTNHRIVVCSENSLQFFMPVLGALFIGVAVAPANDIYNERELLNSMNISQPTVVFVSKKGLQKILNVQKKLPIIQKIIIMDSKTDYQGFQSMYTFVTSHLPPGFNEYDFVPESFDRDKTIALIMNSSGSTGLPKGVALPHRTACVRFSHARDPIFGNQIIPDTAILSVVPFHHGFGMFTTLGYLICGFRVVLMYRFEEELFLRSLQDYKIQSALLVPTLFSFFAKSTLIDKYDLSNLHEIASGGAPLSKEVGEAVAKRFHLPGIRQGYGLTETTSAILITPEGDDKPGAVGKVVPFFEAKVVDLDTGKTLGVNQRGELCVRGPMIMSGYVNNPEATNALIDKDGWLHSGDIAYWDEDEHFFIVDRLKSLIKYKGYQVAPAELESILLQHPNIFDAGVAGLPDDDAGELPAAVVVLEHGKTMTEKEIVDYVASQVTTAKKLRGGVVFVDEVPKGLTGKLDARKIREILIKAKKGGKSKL
# Chain of Signal transducer and activator of transcription 3 (P40763 whole entry): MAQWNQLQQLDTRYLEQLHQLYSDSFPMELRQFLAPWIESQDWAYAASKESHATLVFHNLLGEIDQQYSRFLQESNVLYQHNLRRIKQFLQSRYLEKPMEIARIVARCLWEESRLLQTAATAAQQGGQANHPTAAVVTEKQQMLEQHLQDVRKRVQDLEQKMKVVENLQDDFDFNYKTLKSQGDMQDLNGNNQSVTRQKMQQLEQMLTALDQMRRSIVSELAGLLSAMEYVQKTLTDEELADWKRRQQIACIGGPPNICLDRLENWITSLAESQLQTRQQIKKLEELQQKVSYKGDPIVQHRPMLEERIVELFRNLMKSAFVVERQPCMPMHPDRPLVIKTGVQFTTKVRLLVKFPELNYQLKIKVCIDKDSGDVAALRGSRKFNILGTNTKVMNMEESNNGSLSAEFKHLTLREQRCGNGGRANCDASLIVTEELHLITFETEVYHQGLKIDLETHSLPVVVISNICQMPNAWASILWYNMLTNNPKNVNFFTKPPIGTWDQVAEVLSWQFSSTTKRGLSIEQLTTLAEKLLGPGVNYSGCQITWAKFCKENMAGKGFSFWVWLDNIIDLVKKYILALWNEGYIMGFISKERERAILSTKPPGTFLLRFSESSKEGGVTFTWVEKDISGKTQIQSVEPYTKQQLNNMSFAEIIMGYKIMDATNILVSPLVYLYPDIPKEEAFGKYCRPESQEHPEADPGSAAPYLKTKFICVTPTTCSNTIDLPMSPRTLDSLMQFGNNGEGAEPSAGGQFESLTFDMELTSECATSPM
# Chain of Signal transducer and activator of transcription 1-alpha/beta (P42224 whole entry): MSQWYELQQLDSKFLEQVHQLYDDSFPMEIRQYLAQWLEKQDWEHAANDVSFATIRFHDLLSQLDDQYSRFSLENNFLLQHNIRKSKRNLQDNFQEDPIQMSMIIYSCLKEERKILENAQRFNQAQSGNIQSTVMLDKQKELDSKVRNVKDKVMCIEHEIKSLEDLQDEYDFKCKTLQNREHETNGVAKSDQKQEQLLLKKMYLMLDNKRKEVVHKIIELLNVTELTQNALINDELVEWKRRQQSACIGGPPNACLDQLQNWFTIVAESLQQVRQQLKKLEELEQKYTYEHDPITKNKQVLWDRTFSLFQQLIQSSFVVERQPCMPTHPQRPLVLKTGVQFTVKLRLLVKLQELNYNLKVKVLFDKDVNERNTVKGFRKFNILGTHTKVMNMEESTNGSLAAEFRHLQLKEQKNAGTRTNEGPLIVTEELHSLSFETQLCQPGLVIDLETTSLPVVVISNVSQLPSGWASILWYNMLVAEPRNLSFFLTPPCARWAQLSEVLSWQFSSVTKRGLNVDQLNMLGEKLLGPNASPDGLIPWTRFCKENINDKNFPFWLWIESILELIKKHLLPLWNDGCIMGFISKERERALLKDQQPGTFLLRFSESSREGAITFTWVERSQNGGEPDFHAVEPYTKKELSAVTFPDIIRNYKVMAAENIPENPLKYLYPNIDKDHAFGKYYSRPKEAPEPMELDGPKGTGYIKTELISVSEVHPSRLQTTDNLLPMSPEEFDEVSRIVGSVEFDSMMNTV
# Chain of Nonstructural protein 1 (Q194T2 whole entry): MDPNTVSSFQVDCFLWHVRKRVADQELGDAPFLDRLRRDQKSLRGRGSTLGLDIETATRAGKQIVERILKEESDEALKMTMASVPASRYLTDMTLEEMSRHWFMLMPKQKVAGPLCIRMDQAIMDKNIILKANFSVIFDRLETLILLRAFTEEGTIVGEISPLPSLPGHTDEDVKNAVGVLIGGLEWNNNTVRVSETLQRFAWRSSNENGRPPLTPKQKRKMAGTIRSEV
# Chain of DNA damage-inducible transcript 3 protein (P35639 whole entry): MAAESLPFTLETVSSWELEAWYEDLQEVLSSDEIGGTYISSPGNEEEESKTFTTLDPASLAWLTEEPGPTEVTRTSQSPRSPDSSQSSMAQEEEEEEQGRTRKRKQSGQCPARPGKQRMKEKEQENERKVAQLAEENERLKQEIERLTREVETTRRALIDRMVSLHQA
# Chain of Induced myeloid leukemia cell differentiation protein Mcl-1 (Q07820 whole entry): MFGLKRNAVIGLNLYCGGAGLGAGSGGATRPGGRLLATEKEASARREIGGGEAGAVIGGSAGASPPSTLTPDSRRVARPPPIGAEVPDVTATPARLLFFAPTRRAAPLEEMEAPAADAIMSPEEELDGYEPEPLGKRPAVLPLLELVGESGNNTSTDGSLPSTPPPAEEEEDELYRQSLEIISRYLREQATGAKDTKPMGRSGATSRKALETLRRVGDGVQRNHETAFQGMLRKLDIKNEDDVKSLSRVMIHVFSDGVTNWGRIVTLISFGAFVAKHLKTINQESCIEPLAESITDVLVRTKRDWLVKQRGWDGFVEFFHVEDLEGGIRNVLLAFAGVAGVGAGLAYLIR
compound,measurement,setting,value
CN(C)c1ccc(NC(=O)Nc2ccc3snnc3c2)cc1,EC50,Ion channel NompC,> 29.9 µM (inactive)
same,IC50,NADPH oxidase 1,0.187 µM (active)
same,EC50,Mucolipin-3,> 29.9 µM (not active)
same,IC50,[1],0.455 µM (active)
same,IC50,Nonstructural protein 1,> 100 µM (active)
same,AC50,[2],0.204 µM (active)
O=C(N/C(=C/c1cccc(Br)c1)c1nc(S)n[nH]1)c1ccccc1,EC50,[3],28.9 µM (active)
same,EC50,[4],> 112 µM (not active)
same,EC50,[5],> 100 µM (active)
same,IC50,CHO-K1,> 66.2 µM (inactive)
same,IC50,[6],33.3 µM (inactive)
same,IC50,[7],> 66.2 µM (inactive)
same,IC50,[8],16.8 µM (inactive)
CS(=O)(=O)c1nc(-c2ccco2)cc(C(F)(F)F)n1,IC50,[9],0.644 µM (active)
same,EC50,[10],6.49 µM (active)
same,EC50,[11],1.61 µM (active)
same,EC50,[12],5.96 µM (active)
same,EC50,[13],3.73 µM (active)
same,Absolute IC50 (CHOP),[14],10 µM
same,AC50,[15],> 380 µM (inactive)
same,EC50,Protein RecA,> 380 µM (inactive)
O=C(COc1ccc2ccccc2c1Br)N1CCCCC1,EC50,[16],> 100 µM (inactive)
CN[C@@H](C)C(=O)N[C@H](C(=O)N1CCC[C@H]1C(=O)Nc1ccc2[nH]ccc2c1)C(C)C,IC50,[17],14.3 µM (active)
same,IC50,[18],2 µM (active)
Cc1sc2ncnc(N3CCC(Cc4ccccc4)CC3)c2c1C,IC50,[19],> 18.6 µM (inactive)
same,IC50,[20],> 55.7 µM (inactive)
Cc1ccc(CNC(=O)C(C)OC(=O)c2c(C)nn(Cc3ccccc3)c2Cl)cc1 (configuration not stated),EC50,[21],> 50 µM (inactive)
